Test [1] relates to MAO-B. Details: method as in PMID 30809547. The following applies: cited from earlier work.
Test [2] concerns MAO-A. On the set-up: method as in PMID 30809547. The following applies: cited from earlier work.
Test [3] relates to T1, MAO-A.
T1 construct: endogenous in cells; host or cells: BJ human foreskin fibroblasts stimulated with DEX or HC
The test can be described thus: MAO-A activity assay in hESC-derived neurons stimulated with ATRA. Format: cell-based, human. The following applies: 1 μM ATRA 24 h, then TCP 5 μM, OLC 50 μM or OLP 50 μM for 24 h. On the procedure:
(§1) An in vitro model of MDD was designed for stem cell-derived neuronal cells through incubation of 1 μM all-trans retinoic acid (Sigma-Aldrich PHR1187, St. Louis, MO, USA). All cell treatments were conducted in duplicate and replicated using independently differentiating neuronal plates.
(§2) Activity assays were commercially sourced from BioVision (Abcam, BioVision ab241031, Waltham, MA, USA) and were performed according to manufacturer’s instructions. The treatment groups were plated in duplicate on a black, flat 96-well microplate. The cells were homogenised in assay buffer using a microtube mixer at 4 °C and centrifuged at 10,000× g for 10 min. A Bradford assay was performed to determine the total protein concentration within each cell pellet (200 μg/well for BJ cells, 40 μg/well for hESC-derived neurons). Approximately 40 μL of supernatant was loaded into wells along with 10 μL of either […], or assay buffer for total MAO activity. A H2O2 standard was pipetted as supplied and 50 μL of reaction mix was pipetted into all wells. Using a CLARIOstar Plus Microplate Reader, (BMG Labtech, Ortenberg, Germany), fluorescence was measured kinetically at 25 °C for 60 min with Ex/Em = 535/587 nm.

Test [4] deals with T2, MAO-B.
T2 construct: endogenous in cells; host or cells: BJ human foreskin fibroblasts stimulated with DEX or HC
The test is described as follows: MAO-B activity assay in hESC-derived neurons stimulated with ATRA. The following applies: 1 μM ATRA 24 h, then TCP 5 μM, OLC 50 μM or OLP 50 μM for 24 h. Format: cell-based, human. On the procedure:
as §1, §2

The test system of test [5] is T3, LSD1.
T3 construct: nuclear proteins extracted from the BJ cultures were directly assayed for LSD1 activity; endogenous in cells; host or cells: BJ human foreskin fibroblasts (nuclear extract, DEX-stimulated)
The test can be described thus: LSD1 activity in nuclear extracts of BJ cells stimulated with DEX. It counts as cell-based, human. The settings on record: DEX 50 μM 72 h, then TCP 5 μM or OLP, HT, HTA 50 μM for 48 h.
Protocol: Histone demethylase LSD1 activity assay
4µL of nuclear extracts containing 5µg protein was added to designated strip wells with stably
captured LSD1 substrate (H3K4me2), followed by an additional 26µL of H3K4me2 (HG3)
substrate diluted in assay buffer (HG2). In no enzyme control wells, the 4µL of nuclear
extracts was replaced with 4µL of assay buffer. Blank wells contained 30µL of assay buffer.
A standard curve was generated by adding 1µL of standard (HG4) at incrementally increasing
concentrations (0.1-10ng/µL) to 29µL of assay buffer in designated standard wells. After all
wells were loaded appropriately, the assay plate was incubated away from light at room
temperature for 60 minutes. Following incubation, contents were aspirated and wells were
washed three times with 150µL of wash buffer (HG1). 50µL of capture antibody (HG5)
diluted at a 1:1000 ratio was then added to all wells before incubating at room temperature
for 60 minutes on a rotating platform. Well contents were then aspirated and washed four
times with 150µL of wash buffer. 50µL of detection antibody (HG6) diluted at a 1:1000 ration
was then added to each well. Assay plate was then incubated for a final time at room
temperature for 30 minutes. Well contents were aspirated again, followed by six washes with
150µL wash buffer. 50µL of fluoro-developer (HG7) was then added into each well and
allowed to develop away from light for 1-5 minutes. Fluorescence was then read on a
CLARIOstar Microplate Reader (BMG Labtech, Ortenberg Germany) at Ex/Em =

In test [6] the test system is total MAO. The test can be described thus: Total MAO activity assay in hESC-derived neurons stimulated with ATRA. It counts as cell-based, human. The settings on record: 1 μM ATRA 24 h, then TCP 5 μM, OLC 50 μM or OLP 50 μM for 24 h. As to the method: as §1, §2
The target of test [7] is purified LSD1 (Homo sapiens, UniProt O60341). The test is described as follows: LSD1 direct screening assay (Epigentek inhibitory screening kit). Format: biochemical. The settings on record: direct incubation with purified LSD1, Epigentek kit; read-out: IC50, inhibition of LSD1. On the procedure:
Fluorescence was measured using a CLARIOstar Plus Microplate Reader (BMG Labtech, Ortenberg, Germany) at excitation and emission wavelengths of 530 nm and 590 nm, respectively (Ex/Em = 530/590 nm).

Test [8] relates to human skin fibroblasts. Details: method as in PMID 37432217. The following applies: in comparison to untreated controls, at certain doses; cited from earlier work.
The target in test [9] is T4, purified MAO-A (Homo sapiens, UniProt P21397).
T4 construct: purchased Sigma-Aldrich MAK295
T4 sequence (P21397 1-527): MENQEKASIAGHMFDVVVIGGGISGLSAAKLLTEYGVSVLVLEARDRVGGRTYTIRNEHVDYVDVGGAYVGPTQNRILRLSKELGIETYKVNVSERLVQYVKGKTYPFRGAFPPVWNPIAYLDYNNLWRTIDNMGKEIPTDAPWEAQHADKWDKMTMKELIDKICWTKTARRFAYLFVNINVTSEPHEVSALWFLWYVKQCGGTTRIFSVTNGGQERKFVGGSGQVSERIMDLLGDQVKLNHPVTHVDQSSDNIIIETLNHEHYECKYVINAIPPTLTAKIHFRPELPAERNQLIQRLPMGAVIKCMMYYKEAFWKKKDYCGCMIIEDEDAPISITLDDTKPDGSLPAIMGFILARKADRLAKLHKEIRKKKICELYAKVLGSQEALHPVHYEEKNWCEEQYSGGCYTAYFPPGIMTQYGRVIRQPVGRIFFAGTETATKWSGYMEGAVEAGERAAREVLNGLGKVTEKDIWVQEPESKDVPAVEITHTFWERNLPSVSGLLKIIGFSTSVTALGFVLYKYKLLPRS
The test is described as follows: MAO-A direct screening assay (inhibitor screening kit). The settings on record: purified enzyme; read-out: IC50, inhibition of MAO-A. Format: biochemical. As to the method:
(§3) The assays were conducted for MAO-A and MAO-B according to the manufacturer’s instructions.

In test [10] the test system is H3K4 mono-methylation. The test can be described thus: H3K4 mono-methylation in BJ cells (Western blotting). The settings on record: 50 μM, 48 h, compared to untreated cells; effects more pronounced with DEX. It counts as cell-based, human. On the procedure: As described in the Supplementary Information, nuclear proteins extracted from the BJ cultures were directly assayed for LSD1 activity (Epigentek P-3076, Farmingdale, NY, USA). Fluorescence was read on a CLARIOstar Microplate Reader (BMG Labtech, Ortenberg, Germany) at Ex/Em = 530/590 nm (Figure S4). Histone proteins were extracted from the treated cultures and were analysed through Western blotting. The mono-methylation status of lysine on histone 3 (H3K4) was determined via immunodetection (Table S6).
100µL of Nuclear Extraction Buffer containing 0.2µL 1M DTT and 0.4µL PIC was then added to the remaining nuclei-containing pellets. Full resuspension was achieved through multiple rounds of vigorous vortexing and ice incubations (to maintain protein integrity). Once the entire pellet was visibly resuspended in NEB, tubes were centrifuged at 16,000g for 10 minutes. The resulting supernatant containing the nuclear extract fraction was transferred to clean 0.5mL tubes and stored at -80°C.
Acid extraction of histone proteins
Cells were washed in 10mL of pre-chilled PBS (1X) and detached from flask surface via mechanical disruption using a cell scraper. Cell solution was then transferred into a 15mL tube and centrifuged at 150g for 10 minutes. Supernatant was then discarded and the remaining cell pellet resuspended in 0.5mL PBS (1X) and transferred into a 1.5mL microcentrifuge tube. Cells were then centrifuged at 9400g for 20 seconds, after which the supernatant was removed and discarded. The remaining pellet was then briefly resuspended in 600µL of acid extraction lysis buffer (10mM KCl, 10mM HEPES, […]) containing cOmplete™ Mini Protease Inhibitor Cocktail (Sigma-Aldrich, Roche 11836153001, MO USA) and 0.3µL 1M DTT. This will cause cells to pre-swell, resulting in a reduced amount of PBS (1X) remaining in the microcentrifuge tube that may deter maximal cell lysis capacity. Cells were then centrifuged at 9400g for 20 seconds with the resultant supernatant aspirated and discarded. […]
(In western blotting, separated proteins are transferred to a membrane and probed.)

Test [11] addresses T5, LSD1 (Homo sapiens, UniProt O60341).
T5 construct: Reaction Biology Corporation (performed the assay)
The test is described as follows: LSD1 fluorescence coupling enzyme assay (Reaction Biology Corporation). Format: biochemical. The settings on record: Reaction Biology Corp., 30 min pre-incubation, 10 μM histone H3(1-21)K4me2 peptide substrate; read-out: IC50, LSD1 demethylase activity. On the procedure: The inhibitory activity of HCl 489479, OLC, and OLP was measured using a fluorescence coupling enzyme assay (performed by Reaction Biology Corporation). […] All compounds were pre-incubated for 30 min with the enzyme before the addition of 10 μM histone H3(1-21)K4me2 peptide substrate to start the reaction. Fluorescence was measured using an EnVision Multimode Plate Reader at Ex/Em = 535/590.

The target of test [12] is MAO-A. Details: method as in PMID 17915852. The settings on record: read-out: inhibition constant, MAO-A; cited from earlier work.
Test [13] addresses MAO-B. Details: method as in PMID 17915852. The following applies: read-out: inhibition constant, MAO-B; cited from earlier work.
The target in test [14] is T6, purified MAO-B (Homo sapiens, UniProt P27338).
T6 construct: purchased Sigma-Aldrich MAK296
T6 sequence (P27338 1-520): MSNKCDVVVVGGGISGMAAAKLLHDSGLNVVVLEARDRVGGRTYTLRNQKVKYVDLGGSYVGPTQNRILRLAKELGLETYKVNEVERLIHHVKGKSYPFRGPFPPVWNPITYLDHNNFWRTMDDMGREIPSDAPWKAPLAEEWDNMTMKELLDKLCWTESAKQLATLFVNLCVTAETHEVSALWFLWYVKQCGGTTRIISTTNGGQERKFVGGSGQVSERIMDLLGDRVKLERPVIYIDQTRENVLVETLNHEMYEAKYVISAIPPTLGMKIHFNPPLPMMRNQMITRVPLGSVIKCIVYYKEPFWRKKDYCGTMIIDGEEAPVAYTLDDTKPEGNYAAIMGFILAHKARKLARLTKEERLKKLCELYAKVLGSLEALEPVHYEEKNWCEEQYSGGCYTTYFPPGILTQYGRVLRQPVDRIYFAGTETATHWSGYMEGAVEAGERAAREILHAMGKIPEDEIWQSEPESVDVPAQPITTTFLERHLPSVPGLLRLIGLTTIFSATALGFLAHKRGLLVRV
The test is described as follows: MAO-B direct screening assay (inhibitor screening kit). The following applies: purified enzyme; read-out: IC50, inhibition of MAO-B. It counts as biochemical. As to the method: as §3

In the case of `COc1cc(/C=C/c2ccc(O)cc2)cc(OC)c1` [pterostilbene], the half-maximal inhibitory concentration (IC50) (commonly the concentration that gives 50% inhibition) in test [1] is 138 nM; in test [2] it was 13400 nM.

As to `N[C@@H]1C[C@H]1c1ccccc1` (racemic) [TCP, tranylcypromine, reference compound], the “MAO-A activity in hESC-derived neurons” value in test [3] is “significantly reduced”. In [4], the “MAO-B activity in hESC-derived neurons” value is “significantly reduced”. Moreover, the “LSD1 activity in BJ cultures stimulated with DEX” value (from here on “LSD1 activity”) in test [5] is “significant reduction”. Besides, the “total MAO activity in hESC-derived neurons” value in [6] is recorded as “significantly reduced”.

For the compound `Oc1ccc(/C=C/c2cc(O)cc(O)c2)cc1` [resveratrol], the half-inhibitory concentration (IC50) is 15800 nM in [1] and 313 nM in test [2].

Regarding `OCCc1ccc(O)c(O)c1` [HT, hydroxytyrosol], the “LSD1 activity” value in [5] is “significant reduction”. Also, the IC50 in test [7] was found to be 39 nM; in test [9] it was 430 nM; in test [11], 570 nM. Further, the “growth capacity of human skin fibroblasts” value in [8] is on record as “significantly increased”. Moreover, the “baseline levels of H3K4 mono-methylation in BJ cells” value in test [10] is “increased”.

`O=Cc1cc(=O)oc2cc(OCc3cccc(Cl)c3)ccc12` [7-(3-chlorobenzyloxy)-4-carboxaldehyde-coumarin]: the Ki in test [12] is 11000 nM; in [13], 400 nM.

On to isoeugenol, for which, in test [1], the IC50 is 102000 nM.

As to `CNCc1cc(=O)oc2cc(OCc3cccc(Cl)c3)ccc12` [7-(3-chlorobenzyloxy)-4-(methylamino)methyl-coumarin], the values for the Ki in test [12] and in test [13] were 15700 nM and 100 nM, respectively.

Turning to `CC(=O)OCCc1ccc(O)c(O)c1` [HTA, hydroxytyrosol acetate], the “LSD1 activity” value in [5] is listed as “significant reduction”. The concentration for half-maximal inhibition (IC50) in test [14] came to 91400 nM; in test [7], 1100 nM; in test [9] it was 700 nM; in [11] it was 31 nM. The “baseline levels of H3K4 mono-methylation in BJ cells” value in test [10] is “increased”.

The values are drawn from paper PMC11173677, “Identification and Evaluation of Olive Phenolics in the Context of Amine Oxidase Enzyme Inhibition and Depression: In Silico Modelling and In Vitro Validation” (Molecules, 2024).
